Data from patent publication US6774133B2, “Substituted spiroheterocyclic 1H-3-aryl-pyrrolidine-2,4-dione derivatives, processes for their preparation, and their use as pesticides” (Bayer Aktiengesellschaft, priority 1993, dated 2004).

System: green peach apid (Myzus persicae)
Assay: Myzus test (cabbage leaves dipped)
Type: in vivo
Conditions: after 6 days; active compound concentration 0.1%
Procedure: Solvent: 7 parts by weight of dimethylformamide
Emulsifier: 1 part by weight of alkylaryl polyglycol ether
To produce a suitable preparation of active compound, 1 part by weight of active compound is mixed with the stated amount of solvent and the stated amount of emulsifier, and the concentrate is diluted with water to the desired concentration.
Cabbage leaves (Brassica oleracea) which are severely infested with the green peach apid (Myzus persicae) are treated by being dipped into the preparation of active compound of the desired concentration.
After the specified periods of time, the destruction in % is determined. 100% means that all the aphids have been killed; 0% means that none of the aphids have been killed.

For `Cc1cc(C)c(C2=C(O)C3(CCCCC3)NC2=O)c(C)c1` [(A)], the destruction rate was “no destruction”.

With `CC(C)C(=O)OC1=C(c2ccc(Cl)cc2Cl)C(=O)NC12CCCCC2` [(B)] the destruction rate was 20%.
